# Measured values: ChEMBL document CHEMBL6127049, “Discovery of the selective and nanomolar inhibitor of DPP-4 more potent than sitagliptin by structure-guided rational design” (Eur J Med Chem, 2024)
# Calls of active or inactive are those of the source. No cut-off for these calls is given here.
# Columns and labels:
# Rattus norvegicus [1] = assay: Reduction of alkaline phosphatase (ALP) level in STZ-induced type 2 diabetes male Wistar albino rat model at 10 mg/kg, po measured after 4 weeks by hepatic function test; format: functional, organism-based
# Rattus norvegicus [2] = assay: Anti-diabetic activity in normal Wistar rat model assessed as blood glucose level at 20 mg/kg, po followed by treated administered 3 mg/kg orally measured after 60 mins by Oral glucose tolerance test (reference value: 153.74 + /- 3.94 mg/dL); format: functional; settings: 1 h
# Rattus norvegicus [3] = assay: Anti-diabetic activity in normal Wistar rat model assessed as blood glucose level at 10 mg/kg, po followed by treated administered 3 mg/kg orally measured after 120 mins by Oral glucose tolerance test (reference value: 126.5 + /- 3.90 mg/dL); format: functional; settings: 2 h
# Rattus norvegicus [4] = assay: Anti-diabetic activity in STZ-induced type 2 diabetes male Wistar albino rat model assessed as fasting blood glucose level at 20 mg/kg, po measured on day 28; format: functional; settings: time 28 day
# [5] = Acute toxicity in Balb/C mouse assessed as morphological changes in nose at 1250 to 2000 mg/kg, po; format: organism-based; settings: in vivo, dose 1250-2000 mg/kg
# Rattus norvegicus [6] = assay: Antihyperlipidemic effect in STZ-induced type 2 diabetes male Wistar albino rat model assessed as HDL level at 10 mg/kg, po measured after 4 weeks (reference value: 25.54 +/- 2.62 mg/dL); format: functional
# Dipeptidyl peptidase 4 = Dipeptidyl peptidase 4 (Homo sapiens, UniProt P27487); assay: Inhibition of DPP4 (unknown origin) assessed as hydrolysis rate using Gly-pro-p-nitroanilide as substrate measured after 20 mins incubation by fluorometric assay
# [7] = Acute toxicity in Balb/C mouse assessed as morphological changes in unusual behavior at 1250 to 2000 mg/kg, po; format: organism-based; settings: in vivo, dose 1250-2000 mg/kg
# Rattus norvegicus [8] = assay: Anti-diabetic activity in normal Wistar rat model assessed as blood glucose level at 10 mg/kg, po followed by treated administered 3 mg/kg orally measured after 60 mins by Oral glucose tolerance test (reference value: 153.74 + /- 3.94 mg/dL); format: functional; settings: 1 h
# Rattus norvegicus [9] = assay: Anti-diabetic activity in normal Wistar rat model assessed as blood glucose level at 10 mg/kg, po followed by treated administered 3 mg/kg orally measured after 90 mins by Oral glucose tolerance test (reference value: 134.11 + /- 4.64 mg/dL); format: functional; settings: 1.5 h
# [10] = Acute toxicity in Balb/C mouse assessed as morphological changes in skin at 1250 to 2000 mg/kg, po; format: organism-based; settings: in vivo, dose 1250-2000 mg/kg
# Rattus norvegicus [11] = assay: Anti-diabetic activity in normal Wistar rat model assessed as blood glucose level at 20 mg/kg, po followed by treated administered 3 mg/kg orally measured immediately after administration by Oral glucose tolerance test (reference value: 105.12 mg/dL); format: functional
# Dipeptidyl peptidase 8 = Dipeptidyl peptidase 8 (Homo sapiens, UniProt Q6V1X1); assay: Inhibition of DPP8 (unknown origin) assessed as hydrolysis rate using Gly-pro-p-nitroanilide as substrate measured after 20 mins incubation by […] assay
# [12] = Acute toxicity in Balb/C mouse assessed as morphological changes in fur at 1250 to 2000 mg/kg, po; format: organism-based; settings: in vivo, dose 1250-2000 mg/kg
# Rattus norvegicus [13] = assay: Antihyperlipidemic effect in STZ-induced type 2 diabetes male Wistar albino rat model assessed as HDL level at 20 mg/kg, po measured after 4 weeks (reference value: 25.54 +/- 2.62 mg/dL); format: functional
# Rattus norvegicus [14] = assay: Anti-diabetic activity in normal Wistar rat model assessed as blood glucose level at 20 mg/kg, po followed by treated administered 3 mg/kg orally measured after 30 mins by Oral glucose tolerance test (reference value: 176.14 + /- 4.04 mg/dL); format: functional; settings: 0.5 h
# [15] = Acute toxicity in Balb/C mouse assessed as morphological changes in eyes at 1250 to 2000 mg/kg, po; format: organism-based; settings: in vivo, dose 1250-2000 mg/kg
# Rattus norvegicus [16] = assay: Reduction of insulin level in STZ-induced type 2 diabetes male Wistar albino rat model at 20 mg/kg, po measured after 4 weeks by hepatic function test; format: functional, organism-based
# [17] = Acute toxicity in Balb/C mouse assessed as morphological changes in salvation at 1250 to 2000 mg/kg, po; format: organism-based; settings: in vivo, dose 1250-2000 mg/kg
# Rattus norvegicus [18] = assay: Reduction of serum glutamate oxaloacetate transaminase (SGOT) level in STZ-induced type 2 diabetes male Wistar albino rat model at 10 mg/kg, po measured after 4 weeks by hepatic function test; format: functional, organism-based
# Rattus norvegicus [19] = assay: Anti-diabetic activity in normal Wistar rat model assessed as blood glucose level at 20 mg/kg, po followed by treated administered 3 mg/kg orally measured after 120 mins by Oral glucose tolerance test (reference value: 126.5 + /- 3.90 mg/dL); format: functional; settings: 2 h
# Rattus norvegicus [20] = assay: Reduction of serum glutamate pyruvate transaminase (SGPT) level in STZ-induced type 2 diabetes male Wistar albino rat model at 10 mg/kg, po measured after 4 weeks by hepatic function test; format: functional, organism-based
# Rattus norvegicus [21] = assay: Anti-diabetic activity in normal Wistar rat model assessed as blood glucose level at 20 mg/kg, po followed by treated administered 3 mg/kg orally measured after 90 mins by Oral glucose tolerance test (reference value: 134.11 + /- 4.64 mg/dL); format: functional; settings: 1.5 h
# Rattus norvegicus [22] = assay: Antihyperlipidemic effect in STZ-induced type 2 diabetes male Wistar albino rat model assessed as total cholesterol level at 10 mg/kg, po measured after 4 weeks (reference value: 227.04 +/- 4.10 mg/dL); format: functional
# Rattus norvegicus [23] = assay: Reduction of serum glutamate oxaloacetate transaminase (SGOT) level in STZ-induced type 2 diabetes male Wistar albino rat model at 20 mg/kg, po measured after 4 weeks by hepatic function test; format: functional, organism-based
# Dipeptidyl peptidase 9 = Dipeptidyl peptidase 9 (Homo sapiens, UniProt Q86TI2); assay: Inhibition of DPP9 (unknown origin) assessed as hydrolysis rate using Gly-pro-p-nitroanilide as substrate measured after 20 mins incubation by […] assay
# [24] = Acute toxicity in Balb/C mouse assessed as morphological changes in convulsions at 1250 to 2000 mg/kg, po; format: organism-based; settings: in vivo, dose 1250-2000 mg/kg
# [25] = Acute toxicity in Balb/C mouse assessed as morphological changes in tremors at 1250 to 2000 mg/kg, po; format: organism-based; settings: in vivo, dose 1250-2000 mg/kg
# Rattus norvegicus [26] = assay: Anti-diabetic activity in STZ-induced type 2 diabetes male Wistar albino rat model assessed as fasting blood glucose level at 20 mg/kg, po measured on day 14; format: functional; settings: time 14 day
# Rattus norvegicus [27] = assay: Antihyperlipidemic effect in STZ-induced type 2 diabetes male Wistar albino rat model assessed as LDL level at 10 mg/kg, po measured after 4 weeks (reference value: 184.65 +/- 4.57 mg/dL); format: functional
# Rattus norvegicus [28] = assay: Anti-diabetic activity in STZ-induced type 2 diabetes male Wistar albino rat model assessed as fasting blood glucose level at 20 mg/kg, po measured on day 1; format: functional; settings: time 1 day
# Rattus norvegicus [29] = assay: Anti-diabetic activity in STZ-induced type 2 diabetes male Wistar albino rat model assessed as fasting blood glucose level at 20 mg/kg, po measured on day 7; format: functional; settings: time 7 day
# Rattus norvegicus [30] = assay: Reduction of serum glutamate pyruvate transaminase (SGPT) level in STZ-induced type 2 diabetes male Wistar albino rat model at 20 mg/kg, po measured after 4 weeks by hepatic function test; format: functional, organism-based
# [31] = Acute toxicity in Balb/C mouse assessed as morphological changes in diarrhea at 1250 to 2000 mg/kg, po; format: organism-based; settings: in vivo, dose 1250-2000 mg/kg
# Sequence of Dipeptidyl peptidase 8 (Q6V1X1 whole entry): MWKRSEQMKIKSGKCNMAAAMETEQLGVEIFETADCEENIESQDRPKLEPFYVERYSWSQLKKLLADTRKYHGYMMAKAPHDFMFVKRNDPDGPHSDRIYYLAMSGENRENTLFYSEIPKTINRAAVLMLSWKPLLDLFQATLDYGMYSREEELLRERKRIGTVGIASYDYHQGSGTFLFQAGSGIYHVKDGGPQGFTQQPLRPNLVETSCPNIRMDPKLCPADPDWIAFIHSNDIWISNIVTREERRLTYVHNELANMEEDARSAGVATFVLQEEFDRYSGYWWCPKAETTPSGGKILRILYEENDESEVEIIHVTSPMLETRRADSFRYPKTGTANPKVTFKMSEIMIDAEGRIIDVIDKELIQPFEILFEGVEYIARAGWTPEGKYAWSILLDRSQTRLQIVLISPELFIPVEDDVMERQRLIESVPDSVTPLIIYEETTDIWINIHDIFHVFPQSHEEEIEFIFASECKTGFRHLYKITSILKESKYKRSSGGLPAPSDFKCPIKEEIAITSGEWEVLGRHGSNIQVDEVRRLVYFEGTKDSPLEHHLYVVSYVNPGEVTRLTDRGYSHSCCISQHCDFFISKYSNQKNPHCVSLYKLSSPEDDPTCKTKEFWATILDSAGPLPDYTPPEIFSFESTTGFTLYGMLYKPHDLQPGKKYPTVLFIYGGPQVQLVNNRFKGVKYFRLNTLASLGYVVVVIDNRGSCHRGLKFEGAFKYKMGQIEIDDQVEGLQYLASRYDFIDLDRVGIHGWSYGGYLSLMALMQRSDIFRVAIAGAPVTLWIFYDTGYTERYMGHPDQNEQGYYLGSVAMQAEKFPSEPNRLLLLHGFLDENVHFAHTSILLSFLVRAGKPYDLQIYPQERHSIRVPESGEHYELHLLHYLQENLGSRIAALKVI
# Sequence of Dipeptidyl peptidase 9 (Q86TI2 whole entry): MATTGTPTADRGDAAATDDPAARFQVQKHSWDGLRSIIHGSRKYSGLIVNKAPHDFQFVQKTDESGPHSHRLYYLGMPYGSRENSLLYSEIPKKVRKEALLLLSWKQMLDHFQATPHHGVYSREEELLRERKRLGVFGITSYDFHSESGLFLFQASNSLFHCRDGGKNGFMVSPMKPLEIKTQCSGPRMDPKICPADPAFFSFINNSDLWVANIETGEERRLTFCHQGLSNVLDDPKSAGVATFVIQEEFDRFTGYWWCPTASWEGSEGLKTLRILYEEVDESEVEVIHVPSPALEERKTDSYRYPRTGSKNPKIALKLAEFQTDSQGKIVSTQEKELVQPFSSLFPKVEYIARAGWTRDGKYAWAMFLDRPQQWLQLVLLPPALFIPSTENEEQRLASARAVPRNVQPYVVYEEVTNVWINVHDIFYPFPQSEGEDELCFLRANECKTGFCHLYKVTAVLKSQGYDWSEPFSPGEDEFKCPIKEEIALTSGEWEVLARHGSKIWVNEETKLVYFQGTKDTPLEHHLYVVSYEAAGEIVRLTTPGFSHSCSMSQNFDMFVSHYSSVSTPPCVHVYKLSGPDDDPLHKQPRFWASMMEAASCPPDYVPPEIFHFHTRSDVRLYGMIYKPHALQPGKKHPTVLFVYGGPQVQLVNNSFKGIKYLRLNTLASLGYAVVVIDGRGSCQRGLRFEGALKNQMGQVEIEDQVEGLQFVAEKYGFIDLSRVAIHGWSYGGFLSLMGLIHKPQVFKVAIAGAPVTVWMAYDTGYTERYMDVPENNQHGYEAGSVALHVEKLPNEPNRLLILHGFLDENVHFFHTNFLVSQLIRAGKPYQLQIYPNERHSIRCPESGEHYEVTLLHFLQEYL
# Sequence of Dipeptidyl peptidase 4 (P27487 whole entry): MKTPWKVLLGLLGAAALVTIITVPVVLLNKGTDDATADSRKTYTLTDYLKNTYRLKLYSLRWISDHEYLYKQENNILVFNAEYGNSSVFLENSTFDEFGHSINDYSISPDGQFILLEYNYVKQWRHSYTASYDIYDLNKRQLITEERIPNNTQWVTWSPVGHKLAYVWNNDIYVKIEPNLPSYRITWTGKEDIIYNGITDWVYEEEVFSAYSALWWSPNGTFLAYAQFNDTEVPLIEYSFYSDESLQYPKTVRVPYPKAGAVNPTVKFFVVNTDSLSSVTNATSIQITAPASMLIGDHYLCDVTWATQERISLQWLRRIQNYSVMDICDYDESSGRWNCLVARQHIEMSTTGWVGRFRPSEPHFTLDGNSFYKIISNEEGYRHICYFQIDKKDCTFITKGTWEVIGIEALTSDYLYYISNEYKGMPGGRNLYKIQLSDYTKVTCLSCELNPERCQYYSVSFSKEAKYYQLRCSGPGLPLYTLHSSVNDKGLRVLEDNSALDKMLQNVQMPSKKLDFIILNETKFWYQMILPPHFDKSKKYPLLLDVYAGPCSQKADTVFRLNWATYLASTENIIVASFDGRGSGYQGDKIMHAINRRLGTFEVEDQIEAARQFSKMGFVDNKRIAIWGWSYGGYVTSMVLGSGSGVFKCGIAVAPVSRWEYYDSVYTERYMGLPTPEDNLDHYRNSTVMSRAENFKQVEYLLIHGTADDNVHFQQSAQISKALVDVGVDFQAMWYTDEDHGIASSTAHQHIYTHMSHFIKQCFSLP
structure (smiles),measurement,setting,value
CC1=C([N+](=O)[O-])C(c2ccc(F)c(F)c2)N=C(N)N1C(=O)CN1Cc2cn(S(C)(=O)=O)nc2C1 (centres undefined),Activity,Rattus norvegicus [1],Active
same,Activity,Rattus norvegicus [2],115.22 mg/dL
same,Activity,Rattus norvegicus [3],115.78 mg/dL
same,Activity,Rattus norvegicus [4],117 mg/dL
same,Activity,[5],Non-Toxic
same,Activity,Rattus norvegicus [6],46.32 mg/dL
same,IC50,Dipeptidyl peptidase 4,55 nM
same,Activity,[7],Non-Toxic
same,Activity,Rattus norvegicus [8],118.35 mg/dL
same,Activity,Rattus norvegicus [9],113.96 mg/dL
same,Activity,[10],Non-Toxic
same,Activity,Rattus norvegicus [11],101.87 mg/dL
same,IC50,Dipeptidyl peptidase 8,2900 nM
same,Activity,[12],Non-Toxic
same,Activity,Rattus norvegicus [13],54.1 mg/dL
same,Activity,Rattus norvegicus [14],119.42 mg/dL
same,Activity,[15],Non-Toxic
same,Activity,Rattus norvegicus [16],Active
same,Activity,[17],Non-Toxic
same,Activity,Rattus norvegicus [18],Active
same,Activity,Rattus norvegicus [19],111.56 mg/dL
same,Activity,Rattus norvegicus [20],Active
same,Activity,Rattus norvegicus [21],110.57 mg/dL
same,Activity,Rattus norvegicus [22],153.02 mg/dL
same,Activity,Rattus norvegicus [23],Active
same,IC50,Dipeptidyl peptidase 9,864 nM
same,Activity,[24],Non-Toxic
same,Activity,[25],Non-Toxic
same,Activity,Rattus norvegicus [26],167 mg/dL
same,Activity,Rattus norvegicus [27],135.67 mg/dL
same,Activity,Rattus norvegicus [28],294 mg/dL
same,Activity,Rattus norvegicus [29],188 mg/dL
same,Activity,Rattus norvegicus [30],Active
same,Activity,[31],Non-Toxic
